Columns and labels:
Assay type in all cases: cell-based, human
[1] = system: dermal fibroblasts from type I diabetic patients and matched controls; experiment: Bradykinin-induced Ca2+ mobilization in fura-2 AM loaded fibroblasts (fluorescence spectrophotometry)
Method: The following examples describe novel findings upon which the present invention is based, at least in part. In particular, the present inventors have determined the effects of tumor necrosis factor alpha (TNF-α) treatment, and the diabetic environment (elevated glucose and fatty acid), on bradykinin-induced Ca^2+ mobilization in dermal fibroblasts from type I diabetic patients and matched controls. Fibroblasts were exposed to TNF-α (10 ng/ml) for up to 48 hours. Cells in suspension were then loaded with fura-2 acetoxymethyl ester, and bradykinin-induced Ca^2+ mobilization was measured using fluorescence spectrophotometry. […] With 24 hours of treatment, TNF-α-induced increments in peak bradykinin response were three-fold greater in diabetics than in controls (P<0.001).
Briefly, fibroblasts from 7 control and 10 diabetic donors (passages 7 to 30) were loaded with fura-2 AM and Ca^2+ mobilization in response to increasing concentrations of bradykinin was determined.
Briefly, paired flasks of cells were treated with TNF-α or left untreated. Fura-loaded cells were stimulated with 20 nM bradykinin and Ca^2+ mobilization was measured after 200 seconds. […] Fibroblasts were fura-2 AM loaded and Ca^2+ mobilization in response to increasing concentrations of bradykinin was determined. Each bar represents the mean of 14 to 33 separate determinations. In cells from both control and diabetic donors, TNF-α treatment augmented bradykinin induced Ca^2+ mobilization, although to a much greater extent in the diabetic donor. […] A small increase in the final equilibrium level of Ca^2+ was also seen consistently in the diabetic fibroblasts, but not in the controls.
The difference between control and diabetic cells can be seen more clearly through the bradykinin-induced increment between untreated and TNF-α treated. […] The change in peak response to bradykinin after TNF-α treatment was measures in fibroblasts from 7 control and 10 diabetic donors (3-8 separate experiments per donor). Each bar on the graph represents the mean of 14 to 34 separate determinations. […] ANOVA indicated an overall difference between control and diabetic (p<0.001), and specific differences between control and diabetic (Tukey p<0.001) at every bradykinin concentration above 1 nM.
Following the initial bradykinin induced peak of Ca^2+ mobilized from the ER, a sustained elevation of Ca^2+ occurs lasting for minutes. This sustained elevation in steady state Ca^2+ requires Ca^2+ entry from the extracellular space. Inappropriate elevation of Ca^2+ may lead to cell injury, apoptosis and death by activation of phospholipases, nucleases, and proteases (Cheung et al. (1986) N. Engl. J. Med. 314:1670-1676): thus, inappropriately elevated Ca^2+ in diabetic cells could be an important mechanisms for initiating diabetic pathology. Because of the important signal transducing properties of the sustained phase of the Ca^2+ response, the effects of TNF-α treatment on the steady state were examined. Briefly, fibroblasts from 7 control and 10 diabetic donors were exposed to 10 ng/ml TNF-α for 24 hours prior to bradykinin stimulation. The magnitude of the final steady state, or resting, intracellular [Ca^2+] following stimulation with bradykinin was determined. Each bar represents the mean of 14 to 34 separate determinations.
To determine whether the TNF-α induced increase in the peak bradykinin response was due to mobilization of Ca^2+ from intracellular stores, the Ca^2+ chelator EGTA was added prior to stimulation with bradykinin. FIG. 9 illustrates an experiment in which fibroblasts were treated with TNF-α for 24 hours or left untreated and the peak bradykinin response measured in the presence or absence of 2 mM EGTA. In these traces, 2 mM EGTA was added 10 seconds prior to stimulation with 200 nM bradykinin. The peak response was unaltered by EGTA in untreated and TNF-α treated cells. […]

[2] = system: fibroblasts from control and IDDM donors; experiment: Thapsigargin-mediated emptying of intracellular Ca2+ stores in fura-loaded fibroblasts
Method: Thapsigargin, an irreversible inhibitor of the intracellular Ca^2+-ATPase, was used to determine if the TNF-α induced increment in peak bradykinin response was mediated by changes in the bradykinin signal transduction cascade, or was at the level of the intracellular Ca^2+ stores by irreversibly inhibiting their refilling FIG. 10 illustrates representative traces in which thapsigargin was added to untreated and TNF-α treated cells from control and IDDM donors. […] Potential mechanisms include alterations in modulation of Ca^2+-ATPase activity, changes in the ATPase itself or alterations in intraluminal signaling.

calreticulin = experiment: Western blot of calreticulin expression in fibroblasts; details: 24 hr of TNF-α treatment
Description: Although TNF-α is known to turn on a multitude of genes in many different cell types, including the fibroblast (Tessier et al. (1993) Arthritis & Rheumatism 36:1528-1539; Rathanaswami et al. (1993) Arthritis & Rheumatism 36:1295-1304; Butler et al. (1994) Eur. Cytokine Network 5:441-448), it is possible that new protein synthesis is required to replete a component of the signal transduction apparatus that is constantly being turned over.

Compound: O=C(O)CN(CCOCCOCCN(CC(=O)O)CC(=O)O)CC(=O)O [EGTA, reference compound]
- effect on final [Ca2+]i after bradykinin ([1]; 2 mM EGTA added 10 seconds prior to 200 nM bradykinin): eliminate the increase in final [Ca^2+]I
- effect on peak bradykinin response ([1]; 2 mM EGTA added 10 seconds prior to 200 nM bradykinin, untreated and TNF-α treated cells): unaltered

Compound: C[C@@H]1C[C@@H]([C@H](O)CC2CC(=O)NC(=O)C2)C(=O)[C@@H](C)C1 [cycloheximide, reference compound]
- effect on TNF-α induced increment in bradykinin response ([1]; protein synthesis inhibitor given with TNF-α): blocked the TNF-α induced increment

Compound: CCCCCCCC/C=C\CCCCCCCC(=O)O [oleate, oleic acid]
- effect on peak bradykinin response (% of 5.6 mM glucose) ([1]; 2 mM oleate with 11 mM glucose, 3 control and 4 diabetic donors, ANOVA p<0.001): significant effects
- effect on steady state [Ca2+]i following bradykinin stimulation ([1]; 2 mM oleic acid with 11 mM glucose, 3 control and 4 diabetic donors, p<0.001): significant effect

Compound: C/C=C(/C)C(=O)O[C@H]1C(C)=C2[C@H]([C@@H]1OC(=O)CCCCCCC)[C@@](C)(OC(C)=O)C[C@H](OC(=O)CCC)[C@@]1(O)[C@H]2OC(=O)[C@@]1(C)O [thapsigargin, reference compound]
- effect of thapsigargin on cytosolic Ca2+ ([2]; untreated and TNF-α treated cells): transient rise of cytosolic Ca^2+

Compound: TNF-α
- effect of TNF-α on thapsigargin-induced Ca2+ transients ([2]; TNF-α treated versus untreated fibroblasts): greater in TNF-α treated fibroblasts than in untreated cells
- effect on calreticulin expression (calreticulin): no change in calreticulin expression
- treatment time at which maximum TNF-α induced increment in peak bradykinin response is achieved ([1]; 10 ng/ml TNF-α, 3 donors, not diminished by 48 hr): ≤ 24 h
- TNF-α induced increment in bradykinin-induced Ca2+ mobilization, diabetic cells versus control cells ([1]; TNF-α 10 ng/ml for 24 hours, 7 control and 10 diabetic donors): 3 fold
- effect on steady state Ca2+ following the bradykinin response ([1]; TNF-α 10 ng/ml for 24 hours, control and diabetic donors, ANOVA p<0.001): significant elevations of steady state Ca^2+
- effect on bradykinin-induced Ca2+ mobilization ([1]; TNF-α 10 ng/ml, 24 hour incubation, 20 nM bradykinin, control and diabetic donors): potentiated bradykinin-induced Ca^2+ mobilization
- treatment time from which increases in bradykinin-induced Ca2+ mobilization were observed ([1]; TNF-α 10 ng/ml, bradykinin 1 nM to 1 μM, controls and diabetics): ≥ 1 h
- effect on basal intracellular Ca2+ ([1]; TNF-α 10 ng/ml, p<0.05): significant increase in basal Ca^2+ in diabetic but not control cells
- effect on peak bradykinin response in control donors, diabetic milieu experiment ([1]; control donors, 48 hours FFA medium, TNF-α final 24 hours, data not shown): little or no effect

From patent US6620583B2, “Diagnostic screens for type 1 diabetes (IDDM)” (Boston Medical Center Corporation, priority 1998, dated 2003)
